From article PMC11594329, “Development of LAT1-Selective Nuclear Medicine Therapeutics Using Astatine-211” (International Journal of Molecular Sciences, 2024)

How the values were obtained:
[1] = Urinary and fecal excretion in ICR mice; type: in vivo
Method: (§1) Urinary excretion levels were also examined (Supplementary Table S1). Comparing the D-isomer and L isomer of ^211At-AAMT-O-Me from ICR mice, the D-isomer; 24.84 ± 13.03% ID, L-isomer; 33.69 ± 1.26% ID at 1 h after injection. D-isomer; 71.36 ± 4.67% ID, L-isomer; 23.99 ± 2.40% ID at 3 h after injection. From PANC-1 tumor bearing mice, D-isomer; 35.24 ± 8.70% ID, L-isomer; 20.40 ± 0.76% ID at 1 h after injection. D-isomer; 47.38 ± 3.19% ID, L-isomer; 3.23 ± 0.67% ID at 3 h after injection. In tumor-bearing models, the amount of excretion was smaller than that in normal mice. We have already reported that, in the presence of target cancer tissue for administered drugs, retention in the cancer tissue results in reduced excretion compared with normal animals. […] The same was also observed for feces, but very little was excreted in the feces. The results were as follows: from ICR mice, D-isomer; 0.06 ± 0.03% ID, L-isomer; 0.004 ± 0.003% ID at 1 h after injection. D-isomer; 0.02 ± 0.01% ID, L-isomer; 0.02 ± 0.01% ID at 3 h after injection. From PANC-1 tumor bearing mice, D-isomer; 0.25 ± 0.12% ID, L-isomer; 0.002 ± 0.001% ID at 1 h after injection. D-isomer; 0.75 ± 0.46% ID; L-isomer; 0.07 ± 0.03% ID at 3 h after injection.
ICR mice (male, 5 weeks old) were purchased from Japan SLC (Shizuoka, Japan) and acclimated for one week prior to use. The doses in the distribution experiments were as follows: ^211At-AAMT-O-Me-L (0.407 ± 0.005 MBq/mouse, 31.64 ± 0.76 g, n = 6), ^211At-AAMT-O-Me-D (0.351 ± 0.004 MBq/mouse, 31.44 ± 0.94 g, n = 6), ^211At-AAMT-O-Et-L (0.685 ± 0.010 MBq/mouse, 24.14 ± 3.31 g, n = 6), ^211At-AAMT-O-Pr-L (1.09 ± 0.06 MBq/mouse, 26.33 ± 0.39 g, n = 6)

[2] = Urinary and fecal excretion in PANC-1 tumor bearing mice; type: in vivo
Method: as §1
(§2) BALB/c nu/nu mice (male, 5 weeks old) were purchased from Japan SLC (Shizuoka, Japan) and subcutaneously transplanted at a density of 1 × 10^7 cells/mouse. PANC-1 cells that reached the logarithmic growth phase were transplanted subcutaneously by mixing a 1 × 10^8 cells/mL cell suspension with an equivalent volume of Matrigel (Corning, Corning, NY, USA) to obtain 1 × 10^7 cells per mouse. Experiments were performed after the size of the transplanted tumor had exceeded 50 mm^3. The doses in the distribution experiments were as follows: ^211At-AAMT-OH-L (0.501 ± 0.011 MBq/mouse, 19.91 ± 0.59 g, n = 3) and ^211At-AAMT-O-Me-L (0.384 ± 0.003 MBq/mouse, 19.18 ± 0.38 g, n = 6 for Table 3), ^211At-AAMT-O-Me-L (158.10 ± 2.94 kBq/mouse, 19.27 ± 0.64 g, n = 6) and ^211At-AAMT-O-Me-D (135.08 ± 2.35 kBq/mouse, 18.64 ± 0.97 g, n = 6), ^211At-AAMT-O-Et-L (0.682 ± 0.011 MBq/mouse, 20.25 ± 1.41 g, n = 6), ^211At-AAMT-O-Pr-L (0.927 ± 0.020 MBq/mouse, 21.74 ± 0.37 g, n = 6).

[3] = system: PANC-1 tumor model; assay: Tissue distribution in nude mice (PANC-1 tumor model); type: in vivo, BALB/c nu/nu mice
Method: as §2

[4] = nude mice (PANC-1 tumor model), 1 h after injection
[5] = nude mice (PANC-1 tumor model), 3 h after injection
[6] = nude mice (PANC-1 tumor model), 24 h after injection
[7] = nude mice (PANC-1 tumor model), after 24 h

SMILES: COc1ccc(C[C@](C)(N)C(=O)O)cc1[211At] [^211At-AAMT-O-Me-L, (S)-2-amino-3-(3-(astato-^211At)-4-methoxyphenyl)-2-methylpropanic acid]
- Excretion in feces ([1]; 1 h after injection): 0.004 ± 0.003 % ID
- Urinary excretion ([1]; 1 h after injection): 33.69 ± 1.26 % ID
- Excretion in feces ([1]; 3 h after injection): 0.02 ± 0.01 % ID
- Urinary excretion ([1]; 3 h after injection): 23.99 ± 2.40 % ID
- Excretion in feces ([2]; 1 h after injection): 0.002 ± 0.001 % ID
- Urinary excretion ([2]; 1 h after injection): 20.40 ± 0.76 % ID
- Excretion in feces ([2]; 3 h after injection): 0.07 ± 0.03 % ID
- Urinary excretion ([2]; 3 h after injection): 3.23 ± 0.67 % ID
- Tissue distribution, Bladder [3, 4]: 0.06 ± 0.00 %ID/g
- Tissue distribution, Blood [3, 4]: 7.85 ± 1.17 %ID/g
- Tissue distribution, Bone [3, 4]: 0.68 ± 1.27 %ID/g
- Tissue distribution, Brain [3, 4]: 0.46 ± 0.00 %ID/g
- Tissue distribution, Cecum [3, 4]: 0.46 ± 0.05 %ID/g
- Tissue distribution, Colon [3, 4]: 1.14 ± 0.27 %ID/g
- Tissue distribution, Heart [3, 4]: 0.86 ± 0.04 %ID/g
- Tissue distribution, Kidney [3, 4]: 3.56 ± 0.09 %ID/g
- Tissue distribution, Liver [3, 4]: 4.92 ± 0.24 %ID/g
- Tissue distribution, Lung [3, 4]: 5.16 ± 0.11 %ID/g
- Tissue distribution, Pancreas [3, 4]: 0.58 ± 0.01 %ID/g
- Tissue distribution, Salivary glands [3, 4]: 0.58 ± 0.05 %ID/g
- Tissue distribution, Small intestine [3, 4]: 3.40 ± 0.36 %ID/g
- Tissue distribution, Spleen [3, 4]: 4.34 ± 0.79 %ID/g
- Tissue distribution, Stomach [3, 4]: 1.32 ± 0.06 %ID/g
- Tissue distribution, Testis [3, 4]: 0.55 ± 0.02 %ID/g
- Tissue distribution, Thyroid [3, 4]: 0.20 ± 0.02 %ID/g
- Tissue distribution, Tumor [3, 4]: 7.83 ± 0.30 %ID/g
- Tissue distribution, Bladder [3, 5]: 0.09 ± 0.01 %ID/g
- Tissue distribution, Blood [3, 5]: 10.38 ± 2.28 %ID/g
- Tissue distribution, Bone [3, 5]: 0.51 ± 1.35 %ID/g
- Tissue distribution, Brain [3, 5]: 0.29 ± 0.01 %ID/g
- Tissue distribution, Cecum [3, 5]: 0.43 ± 0.16 %ID/g
- Tissue distribution, Colon [3, 5]: 0.68 ± 0.23 %ID/g
- Tissue distribution, Heart [3, 5]: 0.76 ± 0.07 %ID/g
- Tissue distribution, Kidney [3, 5]: 2.29 ± 0.07 %ID/g
- Tissue distribution, Liver [3, 5]: 4.62 ± 0.20 %ID/g
- Tissue distribution, Lung [3, 5]: 5.10 ± 0.42 %ID/g
- Tissue distribution, Pancreas [3, 5]: 0.36 ± 0.10 %ID/g
- Tissue distribution, Salivary glands [3, 5]: 0.78 ± 0.18 %ID/g
- Tissue distribution, Small intestine [3, 5]: 2.50 ± 0.42 %ID/g
- Tissue distribution, Spleen [3, 5]: 3.97 ± 0.59 %ID/g
- Tissue distribution, Stomach [3, 5]: 1.31 ± 0.32 %ID/g
- Tissue distribution, Testis [3, 5]: 0.55 ± 0.11 %ID/g
- Tissue distribution, Thyroid [3, 5]: 0.23 ± 0.04 %ID/g
- Tissue distribution, Tumor [3, 5]: 10.29 ± 0.88 %ID/g
- Tissue distribution, Bladder [3, 6]: 0.55 ± 0.13 %ID/g
- Tissue distribution, Blood [3, 6]: 0.88 ± 0.23 %ID/g
- Tissue distribution, Bone [3, 6]: 0.75 ± 0.18 %ID/g
- Tissue distribution, Brain [3, 6]: 0.13 ± 0.04 %ID/g
- Tissue distribution, Cecum [3, 6]: 2.09 ± 0.41 %ID/g
- Tissue distribution, Colon [3, 6]: 1.69 ± 0.15 %ID/g
- Tissue distribution, Heart [3, 6]: 1.29 ± 0.42 %ID/g
- Tissue distribution, Kidney [3, 6]: 1.67 ± 0.49 %ID/g
- Tissue distribution, Liver [3, 6]: 0.92 ± 0.15 %ID/g
- Tissue distribution, Lung [3, 6]: 4.43 ± 1.76 %ID/g
- Tissue distribution, Pancreas [3, 6]: 0.59 ± 0.17 %ID/g
- Tissue distribution, Salivary glands [3, 6]: 13.65 ± 5.31 %ID/g
- Tissue distribution, Small intestine [3, 6]: 1.49 ± 0.29 %ID/g
- Tissue distribution, Spleen [3, 6]: 3.12 ± 2.06 %ID/g
- Tissue distribution, Stomach [3, 6]: 8.89 ± 2.65 %ID/g
- Tissue distribution, Testis [3, 6]: 1.18 ± 0.25 %ID/g
- Tissue distribution, Thyroid [3, 6]: 9.37 ± 3.33 %ID/g
- Tissue distribution, Tumor [3, 6]: 1.86 ± 0.39 %ID/g
- Accumulation remaining in tumors relative to ^211At-AAMT-OH-L [3, 7]: 2.6 times
- Blood intensity relative to ^211At-AAMT-OH-L [3, 7]: 22 times
- Increase of blood intensity in tumor-bearing mice compared with normal animals ([3]; tumor-bearing mice versus ICR mice): 5 fold
